Experimental data: the NIST ThermoML archive (doi:10.1021/je800786k)
± gives the expanded uncertainty stated by the source.

Conditions: Liquid, Vibrating tube method

CCCCCCC(C)N (stereo not given) [1-methylheptylamine]
Conditions | mass density [kg/m3]
293.15 K, 100 kPa | 772 ± 1
293.15 K, 10000 kPa | 778.7 ± 1.1
293.15 K, 20000 kPa | 784.8 ± 1.1
293.15 K, 30000 kPa | 790.6 ± 1.1
293.15 K, 40000 kPa | 796.1 ± 1.1
293.15 K, 50000 kPa | 801.2 ± 1.1
293.15 K, 60000 kPa | 806 ± 1.2
293.15 K, 70000 kPa | 810.6 ± 1.2
293.15 K, 80000 kPa | 815 ± 1.2
293.15 K, 90000 kPa | 819.1 ± 1.2
293.15 K, 100000 kPa | 823.2 ± 1.3
293.15 K, 110000 kPa | 826.9 ± 1.3
293.15 K, 120000 kPa | 830.6 ± 1.3
293.15 K, 130000 kPa | 834.2 ± 1.3
293.15 K, 140000 kPa | 837.6 ± 1.4
303.15 K, 100 kPa | 764 ± 1.1
303.15 K, 10000 kPa | 771.3 ± 1.1
303.15 K, 20000 kPa | 777.8 ± 1.1
303.15 K, 30000 kPa | 783.8 ± 1.1
303.15 K, 40000 kPa | 789.2 ± 1.1
303.15 K, 50000 kPa | 794.5 ± 1.1
303.15 K, 60000 kPa | 799.5 ± 1.2
303.15 K, 70000 kPa | 804.2 ± 1.2
303.15 K, 80000 kPa | 808.7 ± 1.2
303.15 K, 90000 kPa | 813 ± 1.3
303.15 K, 100000 kPa | 817.1 ± 1.3
303.15 K, 110000 kPa | 821 ± 1.3
303.15 K, 120000 kPa | 824.8 ± 1.3
303.15 K, 130000 kPa | 828.5 ± 1.4
303.15 K, 140000 kPa | 832 ± 1.4
313.15 K, 100 kPa | 755.8 ± 1.1
313.15 K, 10000 kPa | 763.5 ± 1.1
313.15 K, 20000 kPa | 770.4 ± 1.1
313.15 K, 30000 kPa | 776.7 ± 1.1
313.15 K, 40000 kPa | 782.5 ± 1.1
313.15 K, 50000 kPa | 788.1 ± 1.1
313.15 K, 60000 kPa | 793.2 ± 1.2
313.15 K, 70000 kPa | 798.1 ± 1.2
313.15 K, 80000 kPa | 802.7 ± 1.2
313.15 K, 90000 kPa | 807.1 ± 1.3
313.15 K, 100000 kPa | 811.4 ± 1.3
313.15 K, 110000 kPa | 815.5 ± 1.3
313.15 K, 120000 kPa | 819.4 ± 1.4
313.15 K, 130000 kPa | 823.1 ± 1.4
313.15 K, 140000 kPa | 826.7 ± 1.4
323.15 K, 100 kPa | 748.1 ± 1.1
323.15 K, 10000 kPa | 756 ± 1.1
323.15 K, 20000 kPa | 763.2 ± 1.1
323.15 K, 30000 kPa | 769.9 ± 1.1
323.15 K, 40000 kPa | 776 ± 1.1
323.15 K, 50000 kPa | 781.6 ± 1.2
323.15 K, 60000 kPa | 787.1 ± 1.2
323.15 K, 70000 kPa | 792.2 ± 1.2
323.15 K, 80000 kPa | 797 ± 1.2
323.15 K, 90000 kPa | 801.5 ± 1.3
323.15 K, 100000 kPa | 805.9 ± 1.3
323.15 K, 110000 kPa | 810.1 ± 1.3
323.15 K, 120000 kPa | 814.1 ± 1.4
323.15 K, 130000 kPa | 818 ± 1.4
323.15 K, 140000 kPa | 821.6 ± 1.4
333.15 K, 100 kPa | 739.6 ± 1.1
333.15 K, 10000 kPa | 748.1 ± 1.1
333.15 K, 20000 kPa | 755.5 ± 1.1
333.15 K, 30000 kPa | 762.6 ± 1.1
333.15 K, 40000 kPa | 769 ± 1.1
333.15 K, 50000 kPa | 775 ± 1.2
333.15 K, 60000 kPa | 780.6 ± 1.2
333.15 K, 70000 kPa | 785.8 ± 1.2
333.15 K, 80000 kPa | 790.9 ± 1.3
333.15 K, 90000 kPa | 795.5 ± 1.3
333.15 K, 100000 kPa | 800 ± 1.3
333.15 K, 110000 kPa | 804.4 ± 1.4
333.15 K, 120000 kPa | 808.5 ± 1.4
333.15 K, 130000 kPa | 812.5 ± 1.4
333.15 K, 140000 kPa | 816.3 ± 1.5
343.15 K, 100 kPa | 731.5 ± 1.1
343.15 K, 10000 kPa | 740.5 ± 1.1
343.15 K, 20000 kPa | 748.6 ± 1.1
343.15 K, 30000 kPa | 756 ± 1.1
343.15 K, 40000 kPa | 762.7 ± 1.1
343.15 K, 50000 kPa | 768.9 ± 1.2
343.15 K, 60000 kPa | 774.7 ± 1.2
343.15 K, 70000 kPa | 780.2 ± 1.2
343.15 K, 80000 kPa | 785.3 ± 1.3
343.15 K, 90000 kPa | 790.2 ± 1.3
343.15 K, 100000 kPa | 794.9 ± 1.3
343.15 K, 110000 kPa | 799.2 ± 1.4
343.15 K, 120000 kPa | 803.4 ± 1.4
343.15 K, 130000 kPa | 807.5 ± 1.4
343.15 K, 140000 kPa | 811.4 ± 1.5
353.15 K, 100 kPa | 723.2 ± 1.1
353.15 K, 10000 kPa | 733 ± 1.1
353.15 K, 20000 kPa | 741.6 ± 1.1
353.15 K, 30000 kPa | 749.3 ± 1.1
353.15 K, 40000 kPa | 756.2 ± 1.1
353.15 K, 50000 kPa | 762.7 ± 1.2
353.15 K, 60000 kPa | 768.7 ± 1.2
353.15 K, 70000 kPa | 774.4 ± 1.2
353.15 K, 80000 kPa | 779.7 ± 1.3
353.15 K, 90000 kPa | 784.7 ± 1.3
353.15 K, 100000 kPa | 789.5 ± 1.4
353.15 K, 110000 kPa | 794.1 ± 1.4
353.15 K, 120000 kPa | 798.4 ± 1.4
353.15 K, 130000 kPa | 802.3 ± 1.5
353.15 K, 140000 kPa | 806.3 ± 1.5
363.15 K, 100 kPa | 714.7 ± 1.1
363.15 K, 10000 kPa | 724.9 ± 1.1
363.15 K, 20000 kPa | 734 ± 1.1
363.15 K, 30000 kPa | 742 ± 1.1
363.15 K, 40000 kPa | 749.3 ± 1.2
363.15 K, 50000 kPa | 756.1 ± 1.2
363.15 K, 60000 kPa | 762.4 ± 1.2
363.15 K, 70000 kPa | 768.3 ± 1.3
363.15 K, 80000 kPa | 773.8 ± 1.3
363.15 K, 90000 kPa | 779 ± 1.3
363.15 K, 100000 kPa | 783.9 ± 1.4
363.15 K, 110000 kPa | 788.5 ± 1.4
363.15 K, 120000 kPa | 793 ± 1.4
363.15 K, 130000 kPa | 797.3 ± 1.5
363.15 K, 140000 kPa | 801.4 ± 1.5
373.15 K, 100 kPa | 706 ± 1.1
373.15 K, 10000 kPa | 717.2 ± 1.1
373.15 K, 20000 kPa | 726.6 ± 1.1
373.15 K, 30000 kPa | 735.2 ± 1.1
373.15 K, 40000 kPa | 742.9 ± 1.2
373.15 K, 50000 kPa | 749.9 ± 1.2
373.15 K, 60000 kPa | 756.8 ± 1.2
373.15 K, 70000 kPa | 762.8 ± 1.3
373.15 K, 80000 kPa | 768.5 ± 1.3
373.15 K, 90000 kPa | 773.8 ± 1.3
373.15 K, 100000 kPa | 778.9 ± 1.4
373.15 K, 110000 kPa | 783.7 ± 1.4
373.15 K, 120000 kPa | 788.3 ± 1.5
373.15 K, 130000 kPa | 792.8 ± 1.5
373.15 K, 140000 kPa | 796.8 ± 1.5
383.15 K, 100 kPa | 697.6 ± 1.1
383.15 K, 10000 kPa | 709.4 ± 1.1
383.15 K, 20000 kPa | 719.5 ± 1.1
383.15 K, 30000 kPa | 728.5 ± 1.1
383.15 K, 40000 kPa | 736.4 ± 1.2
383.15 K, 50000 kPa | 743.8 ± 1.2
383.15 K, 60000 kPa | 750.6 ± 1.2
383.15 K, 70000 kPa | 756.8 ± 1.3
383.15 K, 80000 kPa | 762.7 ± 1.3
383.15 K, 90000 kPa | 768.1 ± 1.4
383.15 K, 100000 kPa | 773.3 ± 1.4
383.15 K, 110000 kPa | 778.3 ± 1.4
383.15 K, 120000 kPa | 783 ± 1.5
383.15 K, 130000 kPa | 787.5 ± 1.5
383.15 K, 140000 kPa | 791.8 ± 1.6
393.15 K, 100 kPa | 689 ± 1.1
393.15 K, 10000 kPa | 701.6 ± 1.1
393.15 K, 20000 kPa | 712.3 ± 1.1
393.15 K, 30000 kPa | 721.7 ± 1.2
393.15 K, 40000 kPa | 730 ± 1.2
393.15 K, 50000 kPa | 737.9 ± 1.2
393.15 K, 60000 kPa | 744.9 ± 1.3
393.15 K, 70000 kPa | 751.4 ± 1.3
393.15 K, 80000 kPa | 757.5 ± 1.3
393.15 K, 90000 kPa | 763.2 ± 1.4
393.15 K, 100000 kPa | 768.6 ± 1.4
393.15 K, 110000 kPa | 773.6 ± 1.4
393.15 K, 120000 kPa | 778.4 ± 1.5
393.15 K, 130000 kPa | 782.8 ± 1.5
393.15 K, 140000 kPa | 787.2 ± 1.6
403.15 K, 100 kPa | 680.1 ± 1.2
403.15 K, 10000 kPa | 693.5 ± 1.2
403.15 K, 20000 kPa | 705 ± 1.2
403.15 K, 30000 kPa | 714.8 ± 1.2
403.15 K, 40000 kPa | 723.5 ± 1.2
403.15 K, 50000 kPa | 731.5 ± 1.2
403.15 K, 60000 kPa | 738.7 ± 1.3
403.15 K, 70000 kPa | 745.4 ± 1.3
403.15 K, 80000 kPa | 751.6 ± 1.3
403.15 K, 90000 kPa | 757.5 ± 1.4
403.15 K, 100000 kPa | 763.1 ± 1.4
403.15 K, 110000 kPa | 768.3 ± 1.5
403.15 K, 120000 kPa | 773.2 ± 1.5
403.15 K, 130000 kPa | 777.9 ± 1.5
403.15 K, 140000 kPa | 782.4 ± 1.6
